From patent US20240287172A1, “PROTEIN BINDERS TO IRHOM2 EPITOPES” (SCIRHOM GMBH, priority 2019, published 2024)

Columns and labels:
[1] = tested on: PMA-induced release of endogenous IL-6R from human THP-1 monocytic cells; experiment: ELISA-based IL-6R release assay, PMA-induced, THP-1 cells; type: cell-based; conditions: PMA 25 ng/ml, 1 hour, recombinant murine antibodies and IgG at 1 μg/ml, Batimastat at 10 μM
Protocol: (§1) In brief, on day 1, Nunc black MaxiSorp® 96-well plates (Thermo Fisher Scientific, USA) were coated for 7 hours with 100 μl per well of mouse anti-human IL-6R capture antibody (provided as part of the DuoSet ELISA kit) at 2 μg/ml TBS at room temperature. Capture antibody solution was removed and MaxiSorp® plates were blocked with 300 μl per well of TBS, 1% BSA at room temperature for 1.5 hours. Meanwhile, 40,000 THP-1 (American Type Culture Collection, USA) cells in 80 μl of normal growth medium were seeded in each well of Greiner CELLSTAR V-bottom 96-well plates (Thermo Fisher Scientific, USA) and pre-incubated with 20 μl per well of standard growth medium supplemented with Batimastat (BB94, Abcam, UK) at 50 μM as positive control (for a final concentration of 10 μM in the resulting 100 μl sample volume), mouse IgG antibody (Thermo Fisher Scientific, USA) at 5 μg/ml as isotype control (for a final concentration of 1 μg/ml in the resulting 100 μl sample volume) or antibodies of the invention at 5 μg/ml (for a final concentration of 1 μg/ml in the resulting 100 μl sample volume) at 37° C., 5% CO2 for 30 minutes. […] Using an infinite M1000 (Tecan Group, Switzerland) microplate reader, the fluorescence of each well was collected at an excitation wavelength of 435 nm and an emission wavelength of 555 nm.

[2] = tested on: PMA-induced release of endogenous HB-EGF from PBMCs from healthy donors; experiment: ELISA-based HB-EGF release assay, PMA-induced, PBMCs from healthy donors; type: cell-based; conditions: Homo sapiens, PBMC; PMA 25 ng/ml, 6 hours; recombinant murine antibodies and IgG at 1 μg/ml; Batimastat at 10 μM
Protocol: as §1, with “coated overnight” for “coated for 7 hours”, “anti-human HB-EGF” for “anti-human IL-6R”, “at 4” for “at 2”, “at 4° C. On day 2, the capture” for “at room temperature. Capture”, “for 3” for “for 1.5”, “Meanwhile, 80,000 PBMC from healthy donors (STEMCELL Technologies, Canada)” for “Meanwhile, 40,000 THP-1 (American Type Culture Collection, USA)”

CNC(=O)[C@H](Cc1ccccc1)NC(=O)[C@H](CC(C)C)[C@H](CSc1cccs1)C(=O)NO [Batimastat]
inhibition at 10 µM [1]: 88.6%
inhibition at 10 µM [2]: 94.9%
